Values belong to the molecule of their own block, whether it stands above or below them.
Experiments:
Format in all cases: in vivo, human
[1] = Pharmacokinetic analysis of compound 23 plasma concentrations in patients (LC-MS/MS, non-compartmental); settings: for AUC(0-t) / Cmax / half-life / Tmax: human, plasma; for AUC(0-t) / Cmax: geometric mean; for half-life: mean; for Tmax: median
Procedure: Patients were administered doses of compound 23 ranging from 5 to 50 mg once daily. Plasma concentrations of compound 23 were quantified using acetonitrile precipitation and LC-MS/MS. The peak area of the product ion of the analyte was measured against the peak area of the product ion of the stable label internal standard. A calibration curve spanning the curve range and containing at least six conentrations in duplicate was used to quantify the analyte concentration. The retention times of the analyte and internal standard are approximately 1.5 minutes. PK analyses were donucted using non-compartmental analyses to obtain PK parameters. […] Patients were administered doses of compound 23 ranging from 5 to 50 mg once daily. Plasma concentrations of compound 23 were quantified using acetonitrile precipitation and LC-MS/MS. The peak area of the product ion of the analyte was measured against the peak area of the product ion of the stable label internal standard. A calibration curve spanning the curve range and containing at least six conentrations in duplicate was used to quantify the analyte concentration. The retention times of the analyte and internal standard are approximately 1.5 minutes. PK analyses were donucted using non-compartmental analyses to obtain PK parameters. […] PK data are provided below (Cmax and AUC0-last are presented as geometric mean (geometric %C V); Tmax is presented as median (range); t1/2 is presented as mean (% CV).

[2] = Adverse events after oral administration of compound 23 to patients
Procedure: The nausea and vomiting symptoms were mitigated when a single oral (versus other routes of adminstration such as intravenous) dose of 5-HT3 antagonist was administered 30-60 minutes prior to the compound 23 dosing. […] The adverse events (e.g., symptoms include nausea, vomiting, headache, hypotension, tachycardia, bradycardia, among others) were resolved within 24 hours prior to the next dose. The nausea and vomiting were controlled by serotonin (5-HT3) receptor blockers, ondansetron and granisetron.

[3] = test system: patient's nausea and vomiting symptoms; experiment: Antiemetic given prior to compound 23: control of nausea and vomiting; settings: for effect on emetic symptoms (nausea and vomiting): single oral dose 30-60 minutes prior to compound 23 dosing
Procedure: Prior to administration of compound 23, the antiemetic was administered as outlined below. Example 1: ondansetron via IV: 8 mg or 0.15 mg/kg as single dose; maximum dose of 16 mg/dose. Example 1B: ondansetron via oral: 8 mg up to twice daily. In this example, the patient was weaned off ondansetron via oral after two weeks. […] Example 2: granisetron via IV: 1 mg or 10 mcg/kg as a single dose. Example 2B granisetron via oral: 2 mg as a single dose. In this example, the patient was weaned off oral granisetron after four weeks. […] Example 2C: granisetron via SUBQ: 10 mg as single dose. Example 2D: granisetron via transdermal: apply one patch. Example 5: metoclopramide, a dopamine antagonist, via oral: 10 mg 30 minutes prior to the adminstration of compound 23. […] Example 6: diphenhydramine, a histamine antagonist, via oral or parental: 25 mg or 50 mg 30 minutes prior to the adminstration of compound 23.

5-HT = 5-HT levels in the local gut after compound 23; settings: after administration of compound 23
[4] = Cycle 1 Day 1, 5 mg once daily (n = 1)
[5] = Cycle 1 Day 1, 15 mg once daily (n = 9)
[6] = Cycle 1 Day 1, 25 mg once daily (n = 6)
[7] = Cycle 1 Day 1, 50 mg once daily (n = 2)
[8] = 25 mg and 50 mg single daily dose administered fasting

accumulation upon repeat daily dosing ([1]; 5 to 50 mg once daily): no accumulation
dose proportionality of exposures ([1]; 5 to 50 mg once daily): dose-proportional increase in exposures
AUC(0-t) [1, 4]: 26.2 ng·h/mL
Cmax [1, 4]: 4.35 ng/mL
half-life [1, 4]: 7.72 h
Tmax [1, 4]: 2 h
AUC(0-t) [1, 5]: 129 ng·h/mL
Cmax [1, 5]: 16.2 ng/mL
half-life [1, 5]: 7.14 h
Tmax [1, 5]: 2 h
AUC(0-t) [1, 6]: 201 ng·h/mL
Cmax [1, 6]: 30.1 ng/mL
half-life [1, 6]: 6.82 h
Tmax [1, 6]: 1.5 h
AUC(0-t) [1, 7]: 502 ng·h/mL
Cmax [1, 7]: 79.2 ng/mL
half-life [1, 7]: 5.88 h
Tmax [1, 7]: 2.5 h
SMILES: C[C@H]1CCCN(Cc2cc3c(c(C(F)(F)F)c2)CN(c2cccc([C@]4(c5nncn5C)C[C@@H](C)C4)c2)C3=O)C1 [Compound 23]
adverse events induced [2, 8]: signficant events of nausea, vomiting, synocope, tachycardia, hypotension, and bradycardia
time to onset of adverse events [2, 8]: ≤ 2 h
time to resolution of adverse events ([2]; nausea, vomiting, headache, hypotension, tachycardia, bradycardia, prior to the next dose): ≤ 24 h
need for antiemetic after weaning ([3]; daily compound 23 after patient weaned off oral granisetron after four weeks): without the need for granisetron
need for antiemetic after weaning ([3]; daily compound 23 after patient weaned off oral ondansetron after two weeks): without the need for ondanesetron
levels of 5-HT in the local gut (5-HT): increased levels of 5-HT in the local gut

SMILES: CN(C)CCOC(c1ccccc1)c1ccccc1 [diphenhydramine]
control of nausea and vomiting symptoms ([3]; oral or parenteral 25 mg or 50 mg 30 minutes prior to compound 23): did not control the patient's nausea and vomiting sympotms

SMILES: CCN(CC)CCNC(=O)c1cc(Cl)c(N)cc1OC [metoclopramide]
control of nausea and vomiting symptoms ([3]; oral 10 mg 30 minutes prior to compound 23): did not control the patient's nausea and vomiting sympotms

SMILES: CN1C2CCCC1CC(NC(=O)c1nn(C)c3ccccc13)C2 (stereo not shown) [granisetron]
effect on emetic symptoms (nausea and vomiting) [3]: reduced emetic symptoms

SMILES: Cc1nccn1CC1CCc2c(c3ccccc3n2C)C1=O (stereo not shown) [ondansetron]
effect on emetic symptoms (nausea and vomiting) [3]: reduced emetic symptoms

— patent publication US20230414598A1, “COMBINATION THERAPIES WITH CBL-B INHIBITOR COMPOUNDS AND ANTIEMETIC AGENTS” (NURIX THERAPEUTICS, INC., priority 2022, published 2023)
